We go through four compounds from the supplement of paper PMC10307832.

One experiment has as its system NCI-H441. Briefly: relative viability (nuclei count vs DMSO), 5 days (fraction); higher = more cells survive. The following applies: first compound 0.4 µM. Summed up: (§1)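 Each reported value is a median over duplicate plates. It expresses relative viability: treated-well nuclei count divided by vehicle-well nuclei count. Lung cancer cell lines in 1536-well plates were dosed by pin tool a day after seeding, alone with one drug or with a fixed anchor-drug dose plus five library-drug doses (not always all listed) in √10 steps, and nuclei were counted after 5 days.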
Take `Clc1ccc(Nc2nnc(Cc3ccncc3)c3ccccc23)cc1` [Vatalanib] + COc1cccc2cc(-c3nc([C@H]4CC[C@H](C(=O)O)CC4)n4ncnc(N)c34)[nH]c12 [OSI-027] (partner 0.5 µM): the relative viability came to 0.597.
Compound `Clc1ccc(Nc2nnc(Cc3ccncc3)c3ccccc23)cc1` [Vatalanib] + N=C(N)NC(=N)NCCc1ccccc1 [Phenformin] (partner 250 µM) came in with a relative viability of 0.849.
Still for that read-out and setting: to `Clc1ccc(Nc2nnc(Cc3ccncc3)c3ccccc23)cc1` [Vatalanib] + Nc1nc2[nH]cc(CCc3ccc(C(=O)N[C@@H](CCC(=O)O)C(=O)O)cc3)c2c(=O)[nH]1 [Pemetrexed] (partner 0.2 µM) belongs 0.257.

Still in this experiment, the particulars now being: first compound 1.265 µM.
Consider `COc1cc(N2CCC(C(N)=O)CC2)ccc1Nc1nc(N)c(Cl)c(Nc2ccccc2S(=O)(=O)C(C)C)n1` [HG-5-88-01] + N=C(N)NC(=N)NCCc1ccccc1 [Phenformin] (partner 250 µM), for which the relative viability worked out at 0.589.
The compound `Clc1ccc(Nc2nnc(Cc3ccncc3)c3ccccc23)cc1` [Vatalanib] + COc1cccc2cc(-c3nc([C@H]4CC[C@H](C(=O)O)CC4)n4ncnc(N)c34)[nH]c12 [OSI-027] (partner 0.5 µM) yielded a relative viability of 0.658.
Still for that read-out and setting: to `Clc1ccc(Nc2nnc(Cc3ccncc3)c3ccccc23)cc1` [Vatalanib] + N=C(N)NC(=N)NCCc1ccccc1 [Phenformin] (partner 250 µM) belongs 0.729.
The compound `Clc1ccc(Nc2nnc(Cc3ccncc3)c3ccccc23)cc1` [Vatalanib] + Nc1nc2[nH]cc(CCc3ccc(C(=O)N[C@@H](CCC(=O)O)C(=O)O)cc3)c2c(=O)[nH]1 [Pemetrexed] (partner 0.2 µM) had a relative viability of 0.265.

The experiment is the same for the next values; noted with them: first compound 4 µM.
`COc1cc(N2CCC(C(N)=O)CC2)ccc1Nc1nc(N)c(Cl)c(Nc2ccccc2S(=O)(=O)C(C)C)n1` [HG-5-88-01] + N=C(N)NC(=N)NCCc1ccccc1 [Phenformin] (partner 250 µM) returned a relative viability of 0.294.
In turn, `Clc1ccc(Nc2nnc(Cc3ccncc3)c3ccccc23)cc1` [Vatalanib] + COc1cccc2cc(-c3nc([C@H]4CC[C@H](C(=O)O)CC4)n4ncnc(N)c34)[nH]c12 [OSI-027] (partner 0.5 µM) displayed a relative viability of 0.713.
On the same count and under the same terms, to `Clc1ccc(Nc2nnc(Cc3ccncc3)c3ccccc23)cc1` [Vatalanib] + N=C(N)NC(=N)NCCc1ccccc1 [Phenformin] (partner 250 µM) belongs 0.819; to `Clc1ccc(Nc2nnc(Cc3ccncc3)c3ccccc23)cc1` [Vatalanib] + Nc1nc2[nH]cc(CCc3ccc(C(=O)N[C@@H](CCC(=O)O)C(=O)O)cc3)c2c(=O)[nH]1 [Pemetrexed] (partner 0.2 µM), 0.274.

In another experiment the test system is H3255. Described as above. The following applies: first compound 0.04 µM. The procedure, abridged:
as §1
Compound `COc1cc(N2CCC(C(N)=O)CC2)ccc1Nc1nc(N)c(Cl)c(Nc2ccccc2S(=O)(=O)C(C)C)n1` [HG-5-88-01] + N=C(N)NC(=N)NCCc1ccccc1 [Phenformin] (partner 250 µM) registered a relative viability of 0.381.
The same measure, in the same setting: to `Clc1ccc(Nc2nnc(Cc3ccncc3)c3ccccc23)cc1` [Vatalanib] + COc1cccc2cc(-c3nc([C@H]4CC[C@H](C(=O)O)CC4)n4ncnc(N)c34)[nH]c12 [OSI-027] (partner 0.5 µM) belongs 0.566.
As for `Clc1ccc(Nc2nnc(Cc3ccncc3)c3ccccc23)cc1` [Vatalanib] + N=C(N)NC(=N)NCCc1ccccc1 [Phenformin] (partner 250 µM), the relative viability is 0.397.
The compound `Clc1ccc(Nc2nnc(Cc3ccncc3)c3ccccc23)cc1` [Vatalanib] + Nc1nc2[nH]cc(CCc3ccc(C(=O)N[C@@H](CCC(=O)O)C(=O)O)cc3)c2c(=O)[nH]1 [Pemetrexed] (partner 0.2 µM) displayed a relative viability of 0.543.

The experiment is the same for the next values; noted with them: first compound 0.1265 µM.
The compound `COc1cc(N2CCC(C(N)=O)CC2)ccc1Nc1nc(N)c(Cl)c(Nc2ccccc2S(=O)(=O)C(C)C)n1` [HG-5-88-01] + N=C(N)NC(=N)NCCc1ccccc1 [Phenformin] (partner 250 µM) showed a relative viability of 0.325.
The same measure, in the same setting: to `Clc1ccc(Nc2nnc(Cc3ccncc3)c3ccccc23)cc1` [Vatalanib] + COc1cccc2cc(-c3nc([C@H]4CC[C@H](C(=O)O)CC4)n4ncnc(N)c34)[nH]c12 [OSI-027] (partner 0.5 µM) belongs 0.529; to `Clc1ccc(Nc2nnc(Cc3ccncc3)c3ccccc23)cc1` [Vatalanib] + N=C(N)NC(=N)NCCc1ccccc1 [Phenformin] (partner 250 µM), 0.392.
`Clc1ccc(Nc2nnc(Cc3ccncc3)c3ccccc23)cc1` [Vatalanib] + Nc1nc2[nH]cc(CCc3ccc(C(=O)N[C@@H](CCC(=O)O)C(=O)O)cc3)c2c(=O)[nH]1 [Pemetrexed] (partner 0.2 µM) had a relative viability of 0.536.

The experiment is the same for the next values; noted with them: first compound 0.4 µM.
Compound `COc1cc(N2CCC(C(N)=O)CC2)ccc1Nc1nc(N)c(Cl)c(Nc2ccccc2S(=O)(=O)C(C)C)n1` [HG-5-88-01] + N=C(N)NC(=N)NCCc1ccccc1 [Phenformin] (partner 250 µM) displayed a relative viability of 0.332.
Same read-out and setting: to `Clc1ccc(Nc2nnc(Cc3ccncc3)c3ccccc23)cc1` [Vatalanib] + COc1cccc2cc(-c3nc([C@H]4CC[C@H](C(=O)O)CC4)n4ncnc(N)c34)[nH]c12 [OSI-027] (partner 0.5 µM) belongs 0.51; to `Clc1ccc(Nc2nnc(Cc3ccncc3)c3ccccc23)cc1` [Vatalanib] + N=C(N)NC(=N)NCCc1ccccc1 [Phenformin] (partner 250 µM), 0.316.
`Clc1ccc(Nc2nnc(Cc3ccncc3)c3ccccc23)cc1` [Vatalanib] + Nc1nc2[nH]cc(CCc3ccc(C(=O)N[C@@H](CCC(=O)O)C(=O)O)cc3)c2c(=O)[nH]1 [Pemetrexed] (partner 0.2 µM) registered a relative viability of 0.529.

Staying with this experiment, now noted: first compound 1.265 µM.
`Clc1ccc(Nc2nnc(Cc3ccncc3)c3ccccc23)cc1` [Vatalanib] + COc1cccc2cc(-c3nc([C@H]4CC[C@H](C(=O)O)CC4)n4ncnc(N)c34)[nH]c12 [OSI-027] (partner 0.5 µM) returned a relative viability of 0.584.
For the compound `Clc1ccc(Nc2nnc(Cc3ccncc3)c3ccccc23)cc1` [Vatalanib] + N=C(N)NC(=N)NCCc1ccccc1 [Phenformin] (partner 250 µM), the relative viability was found to be 0.368.
As for `Clc1ccc(Nc2nnc(Cc3ccncc3)c3ccccc23)cc1` [Vatalanib] + Nc1nc2[nH]cc(CCc3ccc(C(=O)N[C@@H](CCC(=O)O)C(=O)O)cc3)c2c(=O)[nH]1 [Pemetrexed] (partner 0.2 µM), the relative viability is 0.512.

Staying with this experiment, now noted: first compound 4 µM.
Regarding `COc1cc(N2CCC(C(N)=O)CC2)ccc1Nc1nc(N)c(Cl)c(Nc2ccccc2S(=O)(=O)C(C)C)n1` [HG-5-88-01] + N=C(N)NC(=N)NCCc1ccccc1 [Phenformin] (partner 250 µM), the relative viability stood at 0.32.
`Clc1ccc(Nc2nnc(Cc3ccncc3)c3ccccc23)cc1` [Vatalanib] + COc1cccc2cc(-c3nc([C@H]4CC[C@H](C(=O)O)CC4)n4ncnc(N)c34)[nH]c12 [OSI-027] (partner 0.5 µM) showed a relative viability of 0.504.
Compound `Clc1ccc(Nc2nnc(Cc3ccncc3)c3ccccc23)cc1` [Vatalanib] + N=C(N)NC(=N)NCCc1ccccc1 [Phenformin] (partner 250 µM) registered a relative viability of 0.368.
`Clc1ccc(Nc2nnc(Cc3ccncc3)c3ccccc23)cc1` [Vatalanib] + Nc1nc2[nH]cc(CCc3ccc(C(=O)N[C@@H](CCC(=O)O)C(=O)O)cc3)c2c(=O)[nH]1 [Pemetrexed] (partner 0.2 µM) yielded a relative viability of 0.523.
